Test results from patent US20170305922A1, “CARM1 INHIBITORS AND USES THEREOF” (Epizyme, Inc., priority 2014, published 2017).

Key:
[1] = tested on: asymmetric di-methyl PABP1 in RKO cells; experiment: RKO methylation assay: In Cell Western (ICW) for asymmetric di-methyl PABP1 (PABP1me2a); details: Homo sapiens, RKO, 48 h, Cellular-based (PABP1me2a) ICW (In Cell Western) assay
Text: RKO adherent cells were purchased from ATCC (American Type Culture Collection), Manassas, Va., USA. DMEM/Glutamax medium, penicillin-streptomycin, heat inactivated fetal bovine serum, 0.05% trypsin and D-PBS were purchased from Life Technologies, Grand Island, N.Y., USA. Odyssey blocking buffer, 800CW goat anti-rabbit IgG (H+L) antibody, and Licor Odyssey infrared scanner were purchased from Licor Biosciences, Lincoln, Nebr., USA. Asymmetric di-methyl PABP1 antibody was purchased from Cell Signaling Technology, Danvers, Mass., USA. Methanol was purchased from VWR, Franklin, Mass., USA. 10% Tween 20 was purchased from KPL, Inc., Gaithersburg, Md., USA. Paraformaldehyde (PFA) was purchased from EM Sciences. DRAQ5 was purchased from Biostatus Limited, Leicestershire, UK.
RKO adherent cells were maintained in growth medium (DMEM/Glutamax medium supplemented with 10% v/v heat inactivated fetal bovine serum and 100 units/mL penicillin-streptomycin) and cultured at 37° C. under 5% CO2.
Cell treatment, In Cell Western (ICW) for detection of asymmetric di-methyl PABP1 and DNA content: RKO cells were seeded in assay medium at a concentration of 30,000 cells per mL to a poly-D-lysine coated 384 well culture plate (BD Biosciences 356697) with 50 μL per well. Compound (100 nL) from a 96-well source plate was added directly to 384 well cell plate. Plates were incubated at 37° C., 5% CO2 for 48 hours. After two days of incubation, plates were brought to room temperature outside of the incubator for ten minutes and blotted on paper towels to remove cell media. Cells were fixed for 20 minutes at room temperature by adding 50 ul of 8% PFA followed by aspiration of supernatant with the Biotek EL406 plate washer. Cells were then permeabilized by addition of 50 μL of ice cold 100% methanol directly to each well and incubated for 30 min at room temperature. After 30 min, plates were transferred to a Biotek EL406 plate washer and washed 2 times with 100 μL per well of wash buffer (1×PBS). Next 60 μL per well of Odyssey blocking buffer (Odyssey Buffer with 0.1% Tween 20 (v/v)) were added to each plate and incubated 1 hour at room temperature. Blocking buffer was removed and 20 μL per well of primary antibody was added (asymmetric-methyl PABP1) diluted 1:400 in Odyssey buffer with 0.1% Tween 20 (v/v)) and plates were incubated overnight (16 hours) at 4° C. Plates were washed 5 times with 100 μL per well of wash buffer. Next 20 μL per well of secondary antibody was added (1:800 800CW goat anti-rabbit IgG (H+L) antibody, 1:2000 DRAQ5 in Odyssey buffer with 0.1% Tween 20 (v/v)) and incubated for 1 hour at room temperature. The plates were washed 5 times with 100 μL per well wash buffer then 2 times with 100 μL per well of water. Plates were allowed to dry at room temperature then imaged on the Licor Odyssey machine which measures integrated intensity at 700 nm and 800 nm wavelengths. Both 700 and 800 channels were scanned.
First, the ratio for each well was determined by:
Each plate included fourteen control wells of DMSO only treatment (minimum inhibition) as well as fourteen control wells for maximum inhibition treated with 20 μM of a reference compound. The average of the ratio values for each control type was calculated and used to determine the percent […] for each test well in the plate. Reference compound was serially diluted three-fold in DMSO for a total of nine test concentrations, beginning at 20 μM.
Percent inhibition was determined and IC50 curves were generated using triplicate wells per concentration of compound.

[2] = biological target: T1, Human CARM1 (PRMT4) (Homo sapiens, UniProt Q86X55); experiment: CARM1 enzyme assay on peptide substrates (3H-SAM Flashplate); details: Biochemical assay; CARM1 0.25 nM, 3H-SAM 30 nM, peptide 250 nM; read-out: Biochem IC50
T1 construct: Flag-CARM1-His was eluted with 200 ug/ml FLAG peptide in buffer A; made in house; host or cells: HEK 293F cells infected with recombinant baculovirus (pFastBacMam)
T1 sequence (Q86X55 1-585 isoform Q86X55-1): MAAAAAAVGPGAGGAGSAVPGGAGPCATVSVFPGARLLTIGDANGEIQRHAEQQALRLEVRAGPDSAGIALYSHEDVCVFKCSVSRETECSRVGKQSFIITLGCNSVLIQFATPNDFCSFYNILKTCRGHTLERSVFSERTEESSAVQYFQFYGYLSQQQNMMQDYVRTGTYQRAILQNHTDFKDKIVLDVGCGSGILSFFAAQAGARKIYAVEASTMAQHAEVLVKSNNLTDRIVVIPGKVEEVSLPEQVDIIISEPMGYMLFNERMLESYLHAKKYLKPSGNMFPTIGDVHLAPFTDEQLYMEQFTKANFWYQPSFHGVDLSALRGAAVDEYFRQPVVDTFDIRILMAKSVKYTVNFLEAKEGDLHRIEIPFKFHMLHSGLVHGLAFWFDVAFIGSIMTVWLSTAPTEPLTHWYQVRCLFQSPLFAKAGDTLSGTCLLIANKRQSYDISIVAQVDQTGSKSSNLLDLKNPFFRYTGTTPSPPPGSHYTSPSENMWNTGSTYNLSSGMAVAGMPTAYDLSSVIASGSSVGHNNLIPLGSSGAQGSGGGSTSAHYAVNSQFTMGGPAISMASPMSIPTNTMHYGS
Text: S-adenosylmethionine (SAM), S-adenosylhomocysteine (SAH), bicine, Tween20, dimethylsulfoxide (DMSO), bovine skin gelatin (BSG), sodium butyrate and Tris(2-carboxyethyl)phosphine hydrochloride solution (TCEP) were purchased from Sigma-Aldrich at the highest level of purity possible. ^3H-SAM was purchase from American Radiolabeled Chemicals with a specific activity of 80 Ci/mmol. 384-well streptavidin Flashplates were purchased from PerkinElmer.
Peptide representative of human histone H3 residues 16-30 was synthesized with an N-terminal linker-affinity tag motif and a C-terminal amide cap by 21st Century Biochemicals. […] The sequence was Biot-Ahx-[…]-amide and contained a monomethylated arginine at position 26 (SEQ ID NO.:1).
The gene sequence encoding isoform1 containing a deletion of amino acids 539-561 was amplified subsequently and subcloned into pFastBacMam (Viva Biotech).
Recombinant baculovirus were generated according to Bac-to-Bac kit instructions (Life Technologies). Protein over-expression was accomplished by infecting exponentially growing HEK 293F cell culture at 1.3×10^6 cell/ml with virus (MOI=10) in the presence of 8 mM sodium butyrate. Infections were carried out at 37° C. for 48 hours, harvested by centrifugation, and stored at −80° C. for purification.
Column was washed with 500 mM NaCl in buffer A and Flag-CARM1-His was eluted with 200 ug/ml FLAG peptide in buffer A. Pooled fractions were dialyzed in 20 mM Tris, 150 mM NaCl, 5% glycerol and 1 mM DTT, pH 7.8.
The assays were all performed in a buffer consisting of 20 mM Bicine (pH=7.6), 1 mM TCEP, 0.005% BSG, and 0.002% Tween 20, prepared on the day of use. Compounds in 100% DMSO (1 ul) were spotted into a polypropylene 384-well V-bottom plates (Greiner) using a Platemate Plus outfitted with a 384-channel head (Thermo Scientific). DMSO (1 ul) was added to Columns 11, 12, 23, 24, rows A-H for the maximum signal control and 1 ul of SAH, a known product and inhibitor of CARM1, was added to columns 11, 12, 23, 24, rows I-P for the minimum signal control. A cocktail (40 ul) containing the CARM1 enzyme was added by Multidrop Combi (Thermo-Fisher). The compounds were allowed to incubate with CARM1 for 30 min at room temperature, then a cocktail (10 ul) containing ^3H-SAM and peptide was added to initiate the reaction (final volume=51 ul). The final concentrations of the components were as follows: CARM1 was 0.25 nM, ^3H-SAM was 30 nM, peptide was 250 nM, SAH in the minimum signal control wells was 1 mM, and the DMSO concentration was 2%. The assays were stopped by the addition of non-radiolabeled SAM (10 ul) to a final concentration of 300 uM, which dilutes the ^3H-SAM to a level where its incorporation into the peptide substrate is no longer detectable. 50 ul of the reaction in the 384-well polypropylene plate was then transferred to a 384-well Flashplate and the biotinylated peptides were allowed to bind to the streptavidin surface for at least 1 hour before being washed once with 0.1% Tween20 in a Biotek ELx405 plate washer. The plates were then read in a PerkinElmer TopCount plate reader to measure the quantity of ^3H-labeled peptide bound to the Flashplate surface, measured as disintegrations per minute (dpm) or alternatively, referred to as counts per minute (cpm).
where dpm=disintegrations per minute, cmpd=signal in assay well, and min and max are the respective minimum and maximum signal controls.
where top and bottom are the normally allowed to float, but may be fixed at 100 or 0 respectively in a 3-parameter fit. The Hill Coefficient normally allowed to float but may also be fixed at 1 in a 3-parameter fit. Y is the % inhibition and X is the compound concentration.

| IC50 [1] | IC50 [2] | SMILES |
| --- | --- | --- |
| 339 nM | 13.8 nM | CNC[C@@H](O)COc1ccc(Cl)c(-c2nc(-c3c(C)noc3C)c(C)c(N3CC4(CCN(CC(F)(F)F)C(=O)O4)C3)n2)c1 [Example 116] |
| 44 nM | 2.3 nM | CNC[C@@H](O)COc1ccc(Cl)c(-c2nc(-c3c(C)noc3C)c(C)c(N3Cc4ncnc(OCCOC)c4C3)n2)c1 [Example 94] |
| 22.9 nM | 2.17 nM | CNC[C@@H](O)COc1ccc(Cl)c(-c2nc(-c3c(C)noc3C)c(C)c(N3Cc4ccc(N5CC(F)C5)nc4C3)n2)c1 [Example 259] |
| 52 nM | 4.1 nM | CNC[C@@H](O)COc1ccc(Cl)c(-c2nc(-c3c(C)c(Cl)nn3C)c(C)c(N3CC4(CC(OC)C4)C3)n2)c1 [Example 193] |
| 92 nM | 5.5 nM | CNC[C@@H](O)COc1ccc(Cl)c(-c2nc(-c3c(C)noc3C)c(C)c(N3CC4(CC(C(=O)N(C)C)C4)C3)n2)c1 [Example 91] |
| 44 nM | 2.2 nM | CNC[C@@H](O)COc1ccc(Cl)c(-c2nc(-c3c(C)noc3C)c(C)c(N3Cc4cc(C(F)(F)F)cnc4C3)n2)c1 [Example 14] |
| 377 nM | 7.22 nM | CNC[C@@H](O)COc1ccc(Cl)c(-c2nc(-c3c(C)noc3C)c(C)c(N3CC4(CN(C(=O)OCCOC)C4)C3)n2)c1 [Example 255] |
| 162 nM | 2.4 nM | CNC[C@@H](O)COc1ccc(F)c(-c2nc(-c3c(C)noc3C)c(C)c(N3Cc4cn(CC(F)(F)F)nc4C3)n2)c1 [Example 17] |
| 179 nM | 16.6 nM | CNC[C@@H](O)COc1ccc(C(F)(F)F)c(-c2nc(-c3c(C)noc3C)c(C)c(N3CC4(CCOCC4)C3)n2)c1 [Example 21] |
| 412 nM | 3.7 nM | CNC[C@@H](O)COc1ccc(Cl)c(-c2nc(-c3c(C)noc3C)c(C)c(N3Cc4c(n(C)c(=O)n(C)c4=O)C3)n2)c1 [Example 35] |
| 142 nM | 6.81 nM | CNC[C@@H](O)COc1ccc(Cl)c(-c2nc(-c3c(C)c(Br)nn3C)c(C)c(N3CC(CCl)(CNCC(F)(F)F)C3)n2)c1 [Example 304] |
| 76 nM | 5.7 nM | CNC[C@@H](O)COc1ccc(F)c(-c2nc(-c3c(C)noc3C)c(C)c(N3CC4(CCN(CC(F)F)C4)C3)n2)c1 [Example 38] |
| 995 nM | 11.2 nM | CNC[C@@H](O)COc1ccc(Cl)c(-c2nc(/C=C(\OC)C3CCN(C(=O)OC)CC3)c(C)c(-c3c(C)noc3C)n2)c1 [Example 95] |
| 49 nM | 1.8 nM | CNC[C@@H](O)COc1ccc(Cl)c(-c2nc(-c3c(C)noc3C)c(C)c(N3Cc4ccnc(N(C)C)c4C3)n2)c1 [Example 186] |
| 1350 nM | 1.26 nM | CNC[C@@H](O)COc1ccc(Cl)c(-c2nc(-c3c(C)noc3C)c(C)c(N3CC4(CC(N5CCC5)C4)C3)n2)c1 [Example 268] |
| 24 nM | 1.4 nM | CNC[C@@H](O)COc1ccc(Cl)c(-c2nc(-c3c(C)c(Cl)nn3C)c(C)c(N3Cc4cnc(OCCOC)nc4C3)n2)c1 [Example 178] |
| 125 nM | 7.4 nM | CNC[C@@H](O)COc1ccc(Cl)c(-c2nc(-c3c(C)noc3C)c(C)c(N3CC4(CCC(F)CC4)C3)n2)c1 [Example 20] |
| 184 nM | 2.7 nM | CNC[C@@H](O)COc1ccc(Cl)c(-c2nc(-c3c(Cl)cnn3C)c(C)c(N3Cc4nccnc4C3)n2)c1 [Example 341] |
| 69 nM | 3.1 nM | CNC[C@@H](O)COc1ccc(F)c(-c2nc(-c3c(C)noc3C)c(C)c(N3Cc4cnn(CC(F)(F)F)c4C3)n2)c1 [Example 18] |
| 26 nM | 2.7 nM | CCOC(=O)N1CC2=C(C1)CN(c1nc(-c3cc(OC[C@H](O)CNC)ccc3Cl)nc(-c3c(C)noc3C)c1C)C2 [Example 176] |
| 38 nM | 2 nM | CCOc1ccc2c(n1)CN(c1nc(-c3cc(OC[C@H](O)CNC)ccc3Cl)nc(-c3c(C)noc3C)c1C)C2 [Example 245] |
| 16 nM | 2.8 nM | CNC[C@@H](O)COc1ccc(Cl)c(-c2nc(-c3c(C)noc3C)c(C)c(N3Cc4cnc(N5CC(OC)C5)nc4C3)n2)c1 [Example 147] |
